Literature values in patent EP0097942A1, “Antiallergic pyrazine-bis(2-oxoglycine) compounds” (THE DOW CHEMICAL COMPANY, priority 1982, dated 1984).
Where two headings read alike, the source gives them in different places.

Tested on: PCA reactions
Conditions: general statement on reference drug

O=C(O)c1cc(=O)c2c(OCC(O)COc3cccc4oc(C(=O)O)cc(=O)c34)cccc2o1 [Disodium cromoglycate]
activity in PCA test (administered i.p.): active
activity in PCA test (administered orally): not orally
